#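 At the GI50, growth is halved. TGI: concentration producing complete growth inhibition.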
# Columns and labels:
# Assay in all cases: growth of human tumour cells (NCI), 384-well format
# [1] = tested on: 786-0 renal
# [2] = tested on: A498 renal
# [3] = tested on: A549 NSCLC
# [4] = tested on: ACHN renal
# [5] = tested on: BT-549 breast
# [6] = tested on: CAKI-1 renal
# [7] = tested on: CCRF-CEM leukemia
# [8] = tested on: COLO 205 colon
# [9] = tested on: DU-145 prostate
# [10] = tested on: EKVX NSCLC
# [11] = tested on: HCC-2998 colon
# [12] = tested on: HCT-116 colon
# [13] = tested on: HCT-15 colon
# [14] = tested on: HL-60(TB) leukemia
# [15] = tested on: HOP-62 NSCLC
# [16] = tested on: HOP-92 NSCLC
# [17] = tested on: HS 578T breast
# [18] = tested on: HT29 colon
# [19] = tested on: IGROV1 ovarian
# [20] = tested on: KM12 colon
# [21] = tested on: LOX IMVI melanoma
# [22] = tested on: M14 melanoma
# [23] = tested on: MALME-3M melanoma
# [24] = tested on: MCF7 breast
# [25] = tested on: MDA-MB-231 breast
# [26] = tested on: MDA-MB-435 melanoma
# [27] = tested on: MDA-MB-468 breast
# [28] = tested on: MOLT-4 leukemia
# [29] = tested on: NCI-H226 lung
# [30] = tested on: NCI-H23 lung
# [31] = tested on: NCI-H322M lung
# [32] = tested on: NCI-H460 NSCLC
# [33] = tested on: NCI-H522 lung
# [34] = tested on: NCI/ADR-RES ovarian
# [35] = tested on: OVCAR-3 ovarian
# [36] = tested on: OVCAR-4 ovarian
# [37] = tested on: OVCAR-5 ovarian
# [38] = tested on: OVCAR-8 ovarian
# [39] = tested on: PC-3 prostate
# [40] = tested on: RPMI-8226 leukemia
# [41] = tested on: RXF 393 renal
# [42] = tested on: SF-268 CNS
# [43] = tested on: SF-295 CNS
# [44] = tested on: SF-539 CNS
# [45] = tested on: SK-MEL-28 melanoma
# [46] = tested on: SK-MEL-5 melanoma
# [47] = tested on: SK-OV-3 ovarian
# [48] = tested on: SN12C renal
# [49] = tested on: SNB-19 CNS
# [50] = tested on: SNB-75 CNS
# [51] = tested on: SR leukemia
# [52] = tested on: SW-620 colon
# [53] = tested on: T-47D breast
# [54] = tested on: TK-10 renal
# [55] = tested on: U251 glioblastoma
# [56] = tested on: UACC-257 melanoma
# [57] = tested on: UACC-62 melanoma
# [58] = tested on: UO-31 renal
# [59] = tested on: K-562 leukemia
structure (smiles),measurement,setting,value
c1cc(CN2CCCNCCNCCCNCC2)ccc1CN1CCCNCCNCCCNCC1,GI50,[1],> 100 µM
same,TGI,[1],> 100 µM
same,GI50,[2],> 100 µM
same,TGI,[2],> 100 µM
same,GI50,[3],> 100 µM
same,TGI,[3],> 100 µM
same,GI50,[4],> 100 µM
same,TGI,[4],> 100 µM
same,GI50,[5],> 100 µM
same,TGI,[5],> 100 µM
same,GI50,[6],> 100 µM
same,TGI,[6],> 100 µM
same,GI50,[7],> 100 µM
same,TGI,[7],> 100 µM
same,GI50,[8],> 100 µM
same,TGI,[8],> 100 µM
same,GI50,[9],> 100 µM
same,TGI,[9],> 100 µM
same,GI50,[10],> 100 µM
same,TGI,[10],> 100 µM
same,GI50,[11],> 100 µM
same,TGI,[11],> 100 µM
same,GI50,[12],> 100 µM
same,TGI,[12],> 100 µM
same,GI50,[13],> 100 µM
same,TGI,[13],> 100 µM
same,GI50,[14],> 100 µM
same,TGI,[14],> 100 µM
same,GI50,[15],> 100 µM
same,TGI,[15],> 100 µM
same,GI50,[16],> 100 µM
same,TGI,[16],> 100 µM
same,GI50,[17],> 100 µM
same,TGI,[17],> 100 µM
same,GI50,[18],> 100 µM
same,TGI,[18],> 100 µM
same,GI50,[19],> 100 µM
same,TGI,[19],> 100 µM
same,GI50,[20],> 100 µM
same,TGI,[20],> 100 µM
same,GI50,[21],> 100 µM
same,TGI,[21],> 100 µM
same,GI50,[22],> 100 µM
same,TGI,[22],> 100 µM
same,GI50,[23],> 100 µM
same,TGI,[23],> 100 µM
same,GI50,[24],> 100 µM
same,TGI,[24],> 100 µM
same,GI50,[25],> 100 µM
same,TGI,[25],> 100 µM
same,GI50,[26],> 100 µM
same,TGI,[26],> 100 µM
same,GI50,[27],> 100 µM
same,TGI,[27],> 100 µM
same,GI50,[28],> 100 µM
same,TGI,[28],> 100 µM
same,GI50,[29],> 100 µM
same,TGI,[29],> 100 µM
same,GI50,[30],> 100 µM
same,TGI,[30],> 100 µM
same,GI50,[31],> 100 µM
same,TGI,[31],> 100 µM
same,GI50,[32],> 100 µM
same,TGI,[32],> 100 µM
same,GI50,[33],> 100 µM
same,TGI,[33],> 100 µM
same,GI50,[34],> 100 µM
same,TGI,[34],> 100 µM
same,GI50,[35],> 100 µM
same,TGI,[35],> 100 µM
same,GI50,[36],> 100 µM
same,TGI,[36],> 100 µM
same,GI50,[37],> 100 µM
same,TGI,[37],> 100 µM
same,GI50,[38],> 100 µM
same,TGI,[38],> 100 µM
same,GI50,[39],> 100 µM
same,TGI,[39],> 100 µM
same,GI50,[40],> 100 µM
same,TGI,[40],> 100 µM
same,GI50,[41],> 100 µM
same,TGI,[41],> 100 µM
same,GI50,[42],> 100 µM
same,TGI,[42],> 100 µM
same,GI50,[43],> 100 µM
same,TGI,[43],> 100 µM
same,GI50,[44],> 100 µM
same,TGI,[44],> 100 µM
same,GI50,[45],> 100 µM
same,TGI,[45],> 100 µM
same,GI50,[46],> 100 µM
same,TGI,[46],> 100 µM
same,GI50,[47],> 100 µM
same,TGI,[47],> 100 µM
same,GI50,[48],> 100 µM
same,TGI,[48],> 100 µM
same,GI50,[49],> 100 µM
same,TGI,[49],> 100 µM
same,GI50,[50],> 100 µM
same,TGI,[50],> 100 µM
same,GI50,[51],> 100 µM
same,TGI,[51],> 100 µM
same,GI50,[52],> 100 µM
same,TGI,[52],> 100 µM
same,GI50,[53],> 100 µM
same,TGI,[53],> 100 µM
same,GI50,[54],> 100 µM
same,TGI,[54],> 100 µM
same,GI50,[55],> 100 µM
same,TGI,[55],> 100 µM
same,GI50,[56],> 100 µM
same,TGI,[56],> 100 µM
same,GI50,[57],> 100 µM
same,TGI,[57],> 100 µM
same,GI50,[58],> 100 µM
same,TGI,[58],> 100 µM
CC(CN(C)C)S(=O)(=O)c1ccc(-c2cnc(N)c(C(=O)Nc3ccccc3)n2)cc1 (configuration not stated),GI50,[1],0.753 µM
same,TGI,[1],2.66 µM
same,GI50,[2],0.343 µM
same,TGI,[2],1.35 µM
same,GI50,[3],2.17 µM
same,TGI,[3],27.5 µM
same,GI50,[4],0.979 µM
same,TGI,[4],7.41 µM
same,GI50,[5],0.556 µM
same,TGI,[5],2.69 µM
same,GI50,[6],2.77 µM
same,TGI,[6],14.7 µM
same,GI50,[7],0.519 µM
same,TGI,[7],1.66 µM
same,GI50,[8],2.25 µM
same,TGI,[8],5.9 µM
same,GI50,[9],2.9 µM
same,TGI,[9],13.4 µM
same,GI50,[10],8.14 µM
same,TGI,[10],31.3 µM
same,GI50,[11],0.314 µM
same,TGI,[11],0.937 µM
same,GI50,[13],1.03 µM
same,TGI,[13],2.43 µM
same,GI50,[14],1.49 µM
same,TGI,[14],2.83 µM
same,GI50,[15],2.3 µM
same,TGI,[15],14.1 µM
same,GI50,[16],1.4 µM
same,TGI,[16],10.8 µM
same,GI50,[17],0.837 µM
same,TGI,[17],3.17 µM
same,GI50,[18],1.61 µM
same,TGI,[18],3.69 µM
same,GI50,[19],1.99 µM
same,TGI,[19],5.27 µM
same,GI50,[59],1.89 µM
same,TGI,[59],3.53 µM
same,GI50,[20],2.79 µM
same,TGI,[20],12.3 µM
same,GI50,[21],2.48 µM
same,TGI,[21],11.5 µM
same,GI50,[22],1.73 µM
same,TGI,[22],10.7 µM
same,GI50,[23],1.81 µM
same,TGI,[23],5.29 µM
same,GI50,[24],0.844 µM
same,TGI,[24],13.4 µM
same,GI50,[25],12.9 µM
same,TGI,[25],36.3 µM
same,GI50,[26],3.82 µM
same,TGI,[26],16.1 µM
same,GI50,[27],0.412 µM
same,TGI,[27],1.34 µM
same,GI50,[28],0.515 µM
same,TGI,[28],1.62 µM
same,GI50,[29],3.25 µM
same,TGI,[29],12.9 µM
same,GI50,[30],1.07 µM
same,TGI,[30],4.51 µM
same,GI50,[31],1.1 µM
same,TGI,[31],15.5 µM
same,GI50,[32],0.696 µM
same,TGI,[32],6.72 µM
same,GI50,[33],10.3 µM
same,TGI,[33],22.3 µM
same,GI50,[34],3.11 µM
same,TGI,[34],15.1 µM
same,GI50,[35],3.04 µM
same,TGI,[35],14.2 µM
same,GI50,[36],1.13 µM
same,TGI,[36],4.19 µM
same,GI50,[37],3.84 µM
same,TGI,[37],14 µM
same,GI50,[38],3.82 µM
same,TGI,[38],14.9 µM
same,GI50,[39],5.52 µM
same,TGI,[39],24.4 µM
same,GI50,[40],1.56 µM
same,TGI,[40],4.48 µM
same,GI50,[41],2.03 µM
same,TGI,[41],10.7 µM
same,GI50,[42],3.49 µM
same,TGI,[42],12.4 µM
same,GI50,[43],2.85 µM
same,TGI,[43],9.55 µM
same,GI50,[44],1.14 µM
same,TGI,[44],2.62 µM
same,GI50,[45],2.39 µM
same,TGI,[45],6.47 µM
same,GI50,[46],2.27 µM
same,TGI,[46],6.06 µM
same,GI50,[47],2.18 µM
same,TGI,[47],13.1 µM
same,GI50,[48],5.15 µM
same,TGI,[48],20 µM
same,GI50,[49],4.56 µM
same,TGI,[49],18.5 µM
same,GI50,[50],9.27 µM
same,TGI,[50],> 100 µM
same,GI50,[51],0.385 µM
same,TGI,[51],1.4 µM
same,GI50,[52],1.71 µM
same,TGI,[52],3.25 µM
same,GI50,[53],9.82 µM
same,TGI,[53],22.2 µM
same,GI50,[54],0.993 µM
same,TGI,[54],7.61 µM
same,GI50,[55],2.51 µM
same,TGI,[55],12.1 µM
same,GI50,[56],1.73 µM
same,TGI,[56],3.35 µM
same,GI50,[57],2.14 µM
same,TGI,[57],9.84 µM
same,GI50,[58],3.64 µM
same,TGI,[58],> 100 µM

# Reference: PubChem BioAssay (NCI)
